Laboratory results: US20080027087A1 (AMPLA Pharmaceuticals, Inc., priority 2006, published 2008)

Tests used:
CB1 receptor [1] = target: T1, CB1 receptor (Homo sapiens, UniProt P21554); experiment: functional activity versus the CB1 receptor
CB1 receptor [2] = target: T1, CB1 receptor; experiment: competition ligand binding assay, CHO-k1 cell membranes; set-up: expressed in transfected cells; host or cells: CHO-k1 cell membranes; details: 0.75 nM radioligand, FIG. 6
Method: (§1) Competition ligand binding assays were performed with the non-selective cannabinoid receptor agonist ([^3H]CP 55,940) (0.75 nM) in the binding buffer containing 50 mM Tris-HCl, pH 7.4, 3 mM MgCl2, 1 mM EDTA, 0.2% BSA using CHO-k1 cell membranes stably expressing human CB1 receptors or mouse brain membrane preparations in 96-well plate format. The receptor membranes (10 μg/well) were pre-incubated with different concentrations of tested compounds in the binding buffer at room temperature for 30 min prior to addition of 0.75 nM [^3H]CP 55,940 in a final volume of 100 μl. The binding was carried out at room temperature for another 2 h. To determine the non-specific binding, experiments were also performed in the presence of 10 μM unlabeled CP 55,940. Binding was terminated by addition of cold binding buffer and filtrated on Whatman GF/B glass-fiber filters using a sampling manifold. The filters were washed 6 times with cold binding buffer and air-dried overnight. The radioactivity was quantitated on a TopCounter (PerkinElmer) after adding scintillation fluid. Specific binding was defined as the difference between the binding in the presence and absence of 10 μM unlabeled CP 55, 940.

[3] = target: T2, Human Cannabinoid 1 (CB1) receptor (Homo sapiens, UniProt P21554); experiment: Ca2+i response to 2-AG in CB1 cells (Indo-1, DSIS flow cytometry), dose-response with or without compound; type: cell-based; details: 2-AG with or without compound, FIG. 2
T2 construct: expressed in transfected cells; host or cells: CHO cells stably expressing GqΔGi chimera
T2 sequence (P21554 whole entry): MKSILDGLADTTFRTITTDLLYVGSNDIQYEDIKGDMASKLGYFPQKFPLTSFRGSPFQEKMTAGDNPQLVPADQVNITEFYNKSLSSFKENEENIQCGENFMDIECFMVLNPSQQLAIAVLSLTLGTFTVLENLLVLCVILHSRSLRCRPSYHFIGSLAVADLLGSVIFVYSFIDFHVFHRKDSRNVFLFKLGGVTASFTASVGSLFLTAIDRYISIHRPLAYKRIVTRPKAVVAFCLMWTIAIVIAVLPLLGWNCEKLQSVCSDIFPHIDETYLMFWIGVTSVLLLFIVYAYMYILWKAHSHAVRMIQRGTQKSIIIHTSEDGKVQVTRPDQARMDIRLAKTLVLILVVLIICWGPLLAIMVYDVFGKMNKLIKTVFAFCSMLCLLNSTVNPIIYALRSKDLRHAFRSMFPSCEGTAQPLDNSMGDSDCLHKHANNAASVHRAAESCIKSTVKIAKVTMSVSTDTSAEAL
From the text: cDNA for the G protein GqΔGi chimera was generated by PCR and inserted into the polylinker region of the pcDNA3/hygro+ vector (Invitrogen). Stable expression of GqΔGi chimera protein in CHO cell line was generated under hygromycin selection. Human Cannabinoid 1 (CB1) cDNA was inserted into the polylinker region of the pcDNA3.1/(+) vector (Invitrogen) and DNA was introduced into the GqΔGi/CHO cell line by Lipofectamine reagent (Invitrogen). […]
Cell line optimization was done by a proprietary method using our novel automated Direct Sample Injection System (DSIS, ‘Direct mixing and injection for high throughput fluidic systems’ Patent Application Number 20050249635) in conjunction with response. Intracellular Ca^2+ (Ca^2+i) levels were measured with Ca^2+ chelating fluorescent probes. […]
The probe-loaded CB1 and Control cell mixture was placed in the Cell Suspension System on the DSIS where they were continuously rocked to keep them in a suspended state. […] The DSIS software, NVS Sampler, recorded a timing file and the CyAn software, Summit, recorded a data file. These two files were then compiled and analyzed by our proprietary software, NVS Analyzer, to determine the percent of cells that responded to each concentration. The data was transferred to GraphPAD Prism for a non-linear regression curve fit that determined the EC50. […]

CB1 receptor [4] = target: T1, CB1 receptor; experiment: [35S]GTPγS binding assay on CHO-k1 cell membranes; type: biochemical; set-up: expressed in transfected cells; host or cells: CHO-k1 cell membranes
Method: [^35S]GTPγS binding assays were performed with CHO-k1 cell membranes stably expressing human CB1 receptors in 96-well ScintiPlate (PerkinElmer). The membranes (12.5 μg/well) were preincubated with compound 7 in the binding buffer (50 mM Tris-HCl, pH 7.4, 100 mM NaCl, 3 mM MgCl2, 0.2 mM EDTA, 0.2% BSA and 10 μM GDP) at 30° C. for 30 min, then added various concentrations of agonists (WIN 55212-2 or CP 55,940) and [^35S]GTPγS (0.2 nM) in a final volume of 200 μl. Reactions were carried out at 30° C. for 60 min, followed by centrifugation of plate at […] for 15 min. After removing supernatant, the radioactivity was quantitated on a TopCounter.

CB1 receptor [5] = target: T1, CB1 receptor; experiment: dissociation kinetics assay with [3H]CP 55,940 on CHO-k1 cell membranes; type: binding; set-up: expressed in transfected cells; host or cells: CHO-k1 cell membranes; details: 0.75 nM [3H]CP 55,940, room temperature, FIG. 3
Method: Dissociation kinetics assays were performed with the non-selective cannabinoid receptor agonist ([^3H]CP 55,940) (0.75 nM) in the binding buffer containing 50 mM Tris-HCl, pH 7.4, 3 mM MgCl2, 1 mM EDTA, 0.2% BSA using CHO-k1 cell membranes stably expressing human CB1 receptors in 96-well plate format. The CBI receptor membranes (10 μg/well) were incubated with 0.75 nM [^3H]CP 55,940 in 100 μl binding buffer at room temperature for 2 h. Dissociation was initiated with addition of 100 μl unlabeled CP 55,940 (10 μM) in binding buffer in the absence or presence of different concentrations of compounds (compound 7). Dissociation was carried out at room temperature for indicated time. To determine the non-specific binding, experiments were also performed in the presence of 10 μM unlabeled CP 55,940. Binding was terminated by addition of cold binding buffer and filtrated on Whatman GF/B glass-fiber filters using a sampling manifold. The filters were washed 6 times with cold binding buffer and air-dried overnight. The radioactivity was quantitated on a TopCounter (PerkinElmer) after adding scintillation fluid. Specific binding was defined as the difference between the binding in the presence and absence of 10 μM unlabeled CP 55,940.

[6] = target: T3, mouse CB1 (mouse brain membrane) (Mus musculus, UniProt P47746); experiment: competition ligand binding assay, mouse brain membrane preparations
T3 construct: human CB1 receptors or mouse brain membrane preparations in 96-well plate format; from tissue; host or cells: mouse brain membrane preparations
T3 sequence (P47746 whole entry): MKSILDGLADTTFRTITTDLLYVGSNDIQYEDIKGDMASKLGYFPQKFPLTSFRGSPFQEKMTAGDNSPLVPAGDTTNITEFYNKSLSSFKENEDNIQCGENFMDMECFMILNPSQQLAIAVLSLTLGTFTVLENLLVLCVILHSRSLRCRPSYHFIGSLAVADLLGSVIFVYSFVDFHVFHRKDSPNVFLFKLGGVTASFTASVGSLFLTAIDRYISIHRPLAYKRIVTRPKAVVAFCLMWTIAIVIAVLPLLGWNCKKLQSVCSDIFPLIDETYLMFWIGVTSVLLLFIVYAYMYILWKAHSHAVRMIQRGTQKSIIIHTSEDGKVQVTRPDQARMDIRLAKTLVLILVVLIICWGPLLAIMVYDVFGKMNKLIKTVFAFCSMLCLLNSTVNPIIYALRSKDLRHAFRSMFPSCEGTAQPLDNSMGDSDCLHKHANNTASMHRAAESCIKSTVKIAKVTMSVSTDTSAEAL
Method: as §1

CB2 receptor = target: T4, CB2 receptor (Homo sapiens, UniProt P34972); experiment: Ca2+i response to 2-AG in CB2 receptor bearing cells, dose-response with or without compound; type: cell-based; details: 2-AG with or without compound, FIG. 2
T4 construct: host or cells: CB2 receptor bearing cells (host not described)
T4 sequence (P34972 whole entry): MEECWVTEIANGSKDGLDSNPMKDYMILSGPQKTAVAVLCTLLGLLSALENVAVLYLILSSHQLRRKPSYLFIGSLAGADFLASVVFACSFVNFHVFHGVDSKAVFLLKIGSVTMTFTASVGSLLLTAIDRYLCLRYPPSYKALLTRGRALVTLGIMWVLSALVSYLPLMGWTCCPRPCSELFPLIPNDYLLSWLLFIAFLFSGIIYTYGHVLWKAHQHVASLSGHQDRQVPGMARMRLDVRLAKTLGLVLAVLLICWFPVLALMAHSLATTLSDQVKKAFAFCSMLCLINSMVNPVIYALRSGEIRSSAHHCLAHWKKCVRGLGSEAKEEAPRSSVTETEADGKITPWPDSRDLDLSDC

[7] = body weight of diet-induced obese male C57BL/6J mice, repeated oral administration for 28 days; type: in vivo; details: for reduction of body weight: 28 days dosing, diet-induced obese mice
Method: Sibutramine, which is currently used clinically, and rimonabant, which has recently received regulatory approval for the management of obesity were used as reference compounds.
Sixty-five C57BL/6J mice (7-8 weeks of age) were ordered from Charles River, Margate, Kent. Mice were group housed in polypropylene cages with free access to a high fat diet (D12451 45% of Kcal derived from fat; Research Diets, N.J., USA) and tap water at all times. Animals were maintained at 21±4° C. and 55±20% humidity on a normal phase 12 h light-dark cycle (lights on 04:30 h)
Animals were exposed to the high fat diet for 16 weeks. During this time body weight was recorded weekly. At the end of 14 weeks animals were singly housed in polypropylene cages for a further two week period (weeks 14-16) and placed on reverse phase lighting (lights off for 8 h from 9.30-17.30 h) during which time the room was illuminated by red light. Animals were dosed with vehicle orally throughout the baseline period. Body weight and food and water intake was recorded daily. Towards the end of the baseline period animals were allocated to one of seven groups (see table 2 below). Upon completion of the baseline period, mice were dosed for 28 days with vehicle or test drug as described below.
Body weight and food and water intake were recorded daily. Following drug administration the animals were examined and any overt behaviour was recorded. For all dosing, the morning session was timed such that approximately half the mice were dosed at the time of lights out (09:30).
The test compounds were dissolved in 1% methylcellulose. […] Drug doses were expressed as free base.
Resulting body weights, food intake and water intake were expressed as mean values ±SEM, and the SEMs are calculated from residuals of the statistical model. Body weight data was analysed by ANCOVA with Day 1 as covariate followed by appropriate comparisons (two-tailed) to determine significant differences from the control group. […] Daily food and water intake data was analysed by ANOVA.

[8] = acute administration: wet mash intake, food intake and body weight in lean male C57BL/6J mice; type: in vivo; details: 10 mg/kg orally, one-way ANOVA

T1 sequence (P21554 whole entry): as the sequence (P21554 whole entry) above

CNCC[C@@H](Oc1ccc(C(F)(F)F)cc1)c1ccccc1 [(R)-fluoxetine]
functional activity versus the CB1 receptor (CB1 receptor [1]): antagonist

Fc1ccc(C(OCCCc2c[nH]cn2)c2ccc(F)cc2)cc1 [compound 7]
inhibition of binding of [3H]CP 55,940 (CB1 receptor [2]): partially inhibited | effect on the 2-AG dose response (Ca2+i) of CB1 cells [3]: right shift | pA2 estimation using CP 55940 as an agonist (CB1 receptor [4]; CB1 cell line, FIG. 4): did not support an allosteric effect | antagonist versus inverse agonist activity in [35S]GTPγS binding (CB1 receptor [4]; response relative to basal levels, FIG. 5): inverse agonist activity | effect on the dissociation rate of [3H]CP 55,940 (CB1 receptor [5]): no effect | inhibition of agonist (CP 55940) binding ([6]; mouse brain membrane, FIG. 7): inhibited | inhibition of antagonist/inverse agonist (SR 141716) binding ([6]; mouse brain membrane, FIG. 7): inhibited | inhibition of binding of [3H]CP 55,940 ([6]; mouse brain membranes, 0.75 nM radioligand, FIG. 6): almost fully inhibited | effect on the 2-AG dose response (Ca2+i) of CB2 receptor bearing cells (CB2 receptor): No effect

CC(C)CC(N(C)C)C1(c2ccc(Cl)cc2)CCC1 (stereo not drawn) [sibutramine]
reduction of body weight ([7]; 20 mg/kg po): 2%

Cc1c(C(=O)NN2CCCCC2)nn(-c2ccc(Cl)cc2Cl)c1-c1ccc(Cl)cc1 [rimonabant]
reduction of body weight ([7]; 10 mg/kg po): 15% | weight reduction as compared to vehicle, significance ([7]; day 29, po, Dunnett's test p<0.001, FIG. 8): statistically significant weight reduction | 24 hour body weight change, difference versus vehicle ([8]; FIG. 10): No significant differences | daily food intake, difference versus vehicle ([8]; FIG. 15): No significant differences | body weight, difference versus vehicle ([8]; FIG. 16): No significant differences

CNCC[C@H](Oc1ccc(C(F)(F)F)cc1)c1ccccc1 [(S)-Fluoxetine]
functional activity versus the CB1 receptor (CB1 receptor [1]): inverse agonist

NCCC(Oc1ccc(C(F)(F)F)cc1)c1ccccc1 (racemic) [norfluoxetine, 3-(4-trifluoromethylphenoxy)-3-phenylpropylamine]
functional activity versus the CB1 receptor (CB1 receptor [1]): antagonist
